The values that follow come from PubChem BioAssay AID2060341 (Molecular Pharmacology Branch, DTP, NCI, 2025).

The structures appear in SMILES notation. Several values for one entry are separate records, joined by “and”; a condition that tells them apart may be missing. Identical values can stand only once.

This test concerns 327498-153-R-J2-PDC multicell spheroid viability. Description: Anticancer human tumor 327498-153-R-J2-PDC patient-derived uterine carcinosarcoma cell line growth inhibition [IpAb]. The conditions noted are these: for viability, T/C: stronger effect = lower value. In outline:
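Multi-cell spheroids of 60% tumour cells, 25% HUVEC and 15% MSC in ultra-low-attachment U-bottom wells, treated with agents combined with ipatasertib or abemaciclib. Half-log ranges top out near clinical Cmax, or 10 microM when Cmax is unknown.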

[1] abbreviates: curve of first compound, second compound 0.1 µM.
The mark [2] stands for this setting: curve of first compound, second compound 0.316 µM.
[3] abbreviates: curve of first compound, second compound 1 µM.
[4] abbreviates: curve of first compound, second compound 3.16 µM.
Where [5] appears, read: curve of first compound, second compound 10 µM.
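Also: spheroids exposed to agents for 7 days.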
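For viability, T/C in this document: 100% = DMSO vehicle control viability.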

For orientation: IC50 means the midpoint of a concentration-inhibition curve. As usually defined, the viability, T/C is the result in the treated group divided by that in the control group, in per cent. Regarding `CC(C)n1nc(-c2ccc3oc(N)nc3c2)c2c(N)ncnc21` + CC(C)NCC(C(=O)N1CCN(c2ncnc3c2C(C)CC3O)CC1)c1ccc(Cl)cc1, the IC50 under setting [1] was 5.3 nM; the concentration for half-maximal inhibition (IC50) under setting [2] stood at 1.76 nM; the IC50 under setting [3] was 0.442 nM; the IC50 under setting [4] is less than 0.316 nM; the IC50 under setting [5] is less than 0.316 nM. The viability, T/C is 83.5% (second compound 0.1 µM, first compound 0.000316 µM); 80% (second compound 0.1 µM, first compound 0.001 µM); 60.3% (second compound 0.1 µM, first compound 0.00316 µM); 36.6% (second compound 0.1 µM, first compound 0.01 µM); 20.7% (second compound 0.1 µM, first compound 0.0316 µM); 15.7% (second compound 0.1 µM, first compound 0.1 µM). For the same compound, the viability, T/C (second compound 0.316 µM, first compound 0.000316 µM) was 74.6%; the viability, T/C (second compound 0.316 µM, first compound 0.001 µM) was 56.5%; the viability, T/C (second compound 0.316 µM, first compound 0.00316 µM) is 44%; the viability, T/C (second compound 0.316 µM, first compound 0.01 µM) is 24.4%; the viability, T/C (second compound 0.316 µM, first compound 0.0316 µM) is 16.6%; the viability, T/C (second compound 0.316 µM, first compound 0.1 µM) is 13.3%. The viability, T/C by setting is: (second compound 1 µM, first compound 0.000316 µM) 55.1%; (second compound 1 µM, first compound 0.001 µM) 36.9%; (second compound 1 µM, first compound 0.00316 µM) 28.4%; (second compound 1 µM, first compound 0.01 µM) 16.8%; (second compound 1 µM, first compound 0.0316 µM) 10.6%; (second compound 1 µM, first compound 0.1 µM) 11%. The viability, T/C is, setting by setting: (second compound 3.16 µM, first compound 0.000316 µM) 39.2%; (second compound 3.16 µM, first compound 0.001 µM) 29.1%; (second compound 3.16 µM, first compound 0.00316 µM) 19.9%; (second compound 3.16 µM, first compound 0.01 µM) 11.5%; (second compound 3.16 µM, first compound 0.0316 µM) 8.42%; (second compound 3.16 µM, first compound 0.1 µM) 7.91%. The viability, T/C reads like this: (second compound 10 µM, first compound 0.000316 µM) 26.9%; (second compound 10 µM, first compound 0.001 µM) 24%; (second compound 10 µM, first compound 0.00316 µM) 13.7%; (second compound 10 µM, first compound 0.01 µM) 9.73%; (second compound 10 µM, first compound 0.0316 µM) 6.51%; (second compound 10 µM, first compound 0.1 µM) 6.09%.
Consider `CC(C)(C)c1cnc(CSc2cnc(NC(=O)C3CCNCC3)s2)o1` + CC(C)NCC(C(=O)N1CCN(c2ncnc3c2C(C)CC3O)CC1)c1ccc(Cl)cc1, for which the IC50 is 131 nM under setting [1]; 109 nM under setting [2]; 45.4 nM under setting [3]; less than 9.49 nM under setting [4]; less than 9.49 nM under setting [5]. Also, the viability, T/C (second compound 0.1 µM, first compound 0.00949 µM) was 101%; the viability, T/C (second compound 0.1 µM, first compound 0.03 µM) is 103%; the viability, T/C (second compound 0.1 µM, first compound 0.0949 µM) was 69.1%; the viability, T/C (second compound 0.1 µM, first compound 0.3 µM) is 1.04%; the viability, T/C (second compound 0.1 µM, first compound 0.949 µM) is 0.63%; the viability, T/C (second compound 0.1 µM, first compound 3 µM) is 0.58%. The viability, T/C runs as follows: (second compound 0.316 µM, first compound 0.00949 µM) 80.3%; (second compound 0.316 µM, first compound 0.03 µM) 82.2%; (second compound 0.316 µM, first compound 0.0949 µM) 56.9%; (second compound 0.316 µM, first compound 0.3 µM) 0.5%; (second compound 0.316 µM, first compound 0.949 µM) 0.5%; (second compound 0.316 µM, first compound 3 µM) 0.49%. Moreover, the viability, T/C was 56.2% (second compound 1 µM, first compound 0.00949 µM); 57.9% (second compound 1 µM, first compound 0.03 µM); 37.6% (second compound 1 µM, first compound 0.0949 µM); 0.39% (second compound 1 µM, first compound 0.3 µM); 0.44% (second compound 1 µM, first compound 0.949 µM); 0.45% (second compound 1 µM, first compound 3 µM). Further, the viability, T/C (second compound 3.16 µM, first compound 0.00949 µM) was 48%; the viability, T/C (second compound 3.16 µM, first compound 0.03 µM) is 45.8%; the viability, T/C (second compound 3.16 µM, first compound 0.0949 µM) is 28.7%; the viability, T/C (second compound 3.16 µM, first compound 0.3 µM) was 0.18%; the viability, T/C (second compound 3.16 µM, first compound 0.949 µM) is 0.36%; the viability, T/C (second compound 3.16 µM, first compound 3 µM) is 0.34%. The viability, T/C (second compound 10 µM, first compound 0.00949 µM) is 36.6%; the viability, T/C (second compound 10 µM, first compound 0.03 µM) is 38%; the viability, T/C (second compound 10 µM, first compound 0.0949 µM) was 15.1%; the viability, T/C (second compound 10 µM, first compound 0.3 µM) was 0.21%; the viability, T/C (second compound 10 µM, first compound 0.949 µM) was 0.55%; the viability, T/C (second compound 10 µM, first compound 3 µM) was 0.37%.
Take `C=CC(=O)N1CCN(c2nc(=O)n(-c3c(C)ccnc3C(C)C)c3nc(-c4c(O)cccc4F)c(F)cc23)C(C)C1` (stereo not drawn): the viability, T/C was 73.5% and 77.4% (compound 0.0316 µM); 69.2% and 69.6% (compound 0.1 µM); 58.3% and 67.6% (compound 0.316 µM); 65.6% and 63.7% (compound 1 µM); 67.2% and 65% (compound 3.16 µM); 55.8% and 59.9% (compound 10 µM). Besides, the IC50 (curve of compound) is more than 10000 nM.
With `CC(C)(C)c1cnc(CSc2cnc(NC(=O)C3CCNCC3)s2)o1`, the viability, T/C was 106% and 96.9% (compound 0.00949 µM); 108% and 105% (compound 0.03 µM); 95.8% and 93.2% (compound 0.0949 µM); 4.76% and 7% (compound 0.3 µM); 0.89% and 1.1% (compound 0.949 µM); 0.6% and 0.58% (compound 3 µM). Also, the IC50 (curve of compound) turned out to be 169 nM.
For the compound `COc1c(OCCCN2CCOCC2)ccc2c3n(c(=NC(=O)c4cnc(N)nc4)nc12)CCN3`, the viability, T/C was 98.8% and 95% (compound 0.00316 µM); 87.7% and 86% (compound 0.01 µM); 70.7% and 76.3% (compound 0.0316 µM); 46.7% and 45.2% (compound 0.1 µM); 25.3% and 23.2% (compound 0.316 µM); 9.52% and 11.8% (compound 1 µM). Under “curve of compound”, the IC50 was 86.5 nM and 86.4 nM.
For the compound `CC(=O)c1c(C)c2cnc(Nc3ccc(N4CCNCC4)cn3)nc2n(C2CCCC2)c1=O`, the viability, T/C is, setting by setting: (compound 0.000949 µM) 106% and 97.8%; (compound 0.003 µM) 96.7% and 103%; (compound 0.00949 µM) 99.7% and 95.5%; (compound 0.03 µM) 79.2% and 89.8%; (compound 0.0949 µM) 70.2% and 70.4%; (compound 0.3 µM) 71% and 56.5%. Under “curve of compound”, the IC50 is more than 300 nM.
